According to PubChem BioAssay (NCI):
Several values for one entry are separate records, joined by “and”; a condition that tells them apart may be missing. Identical values can stand only once.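 Interpolation was linear, between the two tested concentrations surrounding the appropriate level; five concentrations were tested over 48 hours in 96-well plates. GI50 marks 50% less growth. TGI is the concentration that stops growth completely.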

Key:
Assay in all cases: DTP human tumour cell line panel, 48 h
786-0 renal = tested on: 786-0 renal
A549 NSCLC = tested on: A549 NSCLC
HCT-116 colon = tested on: HCT-116 colon
K-562 leukemia = tested on: K-562 leukemia
NCI-H522 lung = tested on: NCI-H522 lung
SNB-19 CNS = tested on: SNB-19 CNS
SNB-75 CNS = tested on: SNB-75 CNS
U251 CNS = tested on: U251 CNS
UO-31 renal = tested on: UO-31 renal

| Structure (SMILES) | TGI (786-0 renal) | TGI (A549 NSCLC) | TGI (HCT-116 colon) | TGI (K-562 leukemia) | TGI (NCI-H522 lung) | TGI (SNB-19 CNS) | TGI (SNB-75 CNS) | TGI (U251 CNS) | TGI (UO-31 renal) | GI50 (786-0 renal) | GI50 (A549 NSCLC) | GI50 (HCT-116 colon) | GI50 (K-562 leukemia) | GI50 (NCI-H522 lung) | GI50 (SNB-19 CNS) | GI50 (SNB-75 CNS) | GI50 (U251 CNS) | GI50 (UO-31 renal) |
| --- | --- | --- | --- | --- | --- | --- | --- | --- | --- | --- | --- | --- | --- | --- | --- | --- | --- | --- |
| CC(=O)N1c2ccccc2C23CCN4CC5=CCOC(O)C(C5CC42)C13 (stereo not given) | > 100 µM | > 100 µM | > 100 µM | > 100 µM | > 100 µM | > 100 µM | > 100 µM | > 100 µM | > 100 µM |  |  |  |  |  |  |  |  |  |
| CC/C(=C(\c1ccc(O)cc1)c1ccc(OCCNC)cc1)c1ccccc1 | 3.13 µM and 3.19 µM and 3.35 µM | 5.55 µM and 3.49 µM and 3.75 µM | 2.98 µM and 2.95 µM and 3.22 µM | 4.88 µM and 3.89 µM and 5.66 µM | 3.84 µM and 3.19 µM and 3.83 µM | 10.9 µM and 8.03 µM and 7.01 µM | 7.39 µM and 6.81 µM and 2.76 µM | 2.92 µM and 2.83 µM and 3.15 µM | 4.41 µM and 3 µM and 3.57 µM | 1730 nM and 1720 nM | 2.33 µM and 1.79 µM and 1.74 µM | 1610 nM and 1540 nM and 1730 nM | 2000 nM and 1740 nM and 2110 nM | 1780 nM and 1500 nM and 1970 nM | 3.61 µM and 2.67 µM and 2.63 µM | 2150 nM and 1960 nM and 1320 nM | 1570 nM and 1500 nM and 1660 nM | 1540 nM and 1320 nM and 1670 nM |
| O=C(N/N=C/c1cc2ccccc2c2ccccc12)c1cc(O)c(O)c(O)c1 | 7.2 µM | 39.2 µM | 12.4 µM | 51 µM | 5.64 µM | 18.7 µM | 14.3 µM | 14 µM | 16.5 µM | 2770 nM | 12.7 µM | 3170 nM | 3570 nM | 2060 nM | 3.6 µM | 2100 nM | 2960 nM | 2640 nM |
| CCOC(=O)c1c(C)c2c(n1C)CSc1cc(S(=O)(=O)c3ccccc3)c(=O)[nH]c1-2 | > 100 µM | > 100 µM | 86.9 µM | > 100 µM | > 100 µM | > 100 µM | > 100 µM | > 100 µM | > 100 µM | 35100 nM | 30.2 µM | 22700 nM | 14600 nM | 25400 nM | 26.9 µM | 42700 nM | 28400 nM | 17400 nM |
| COC(=O)c1c2c(c(C)[n+]([O-])c1C)C(=O)C(NCc1ccc(F)c(Cl)c1)=CC2=O | 22.7 µM | 8.15 µM | 10.2 µM | > 100 µM | 4.7 µM | 9.33 µM | 9.32 µM | 13.8 µM | 7.46 µM | 3100 nM | 2.23 µM | 2340 nM | 2670 nM | 1820 nM | 2.81 µM | 2740 nM | 2530 nM | 2110 nM |
| CS(=O)(=O)c1ccc(C(F)(F)F)cc1NC(=O)Nc1cnc(Oc2ccc(-c3cc(Cl)cnc3N)cc2)nc1 | 7 µM | > 32.1 µM | 4.82 µM | 5.51 µM | 6.64 µM | 34 µM | 11.5 µM | 12.3 µM | 6.72 µM | 2400 nM | 3.07 µM | 2170 nM | 2230 nM | 2230 nM | 2.8 µM | 1110 nM | 2560 nM | 1860 nM |
| O=C1Nc2ccccc2SC1C1SC(=S)N(Cc2ccccc2)C1=O (stereo not given) | 16.5 µM | > 51.4 µM | 9.28 µM | > 81.1 µM | 19.1 µM | 29.5 µM | 24.6 µM | 12.2 µM | 22.8 µM | 5060 nM | 16 µM | 2450 nM | 2650 nM | 5290 nM | 11.2 µM | 10500 nM | 3140 nM | 5630 nM |
| COCCOC(C)C(/C=N/NC(N)=S)=N/NC(N)=S (stereo not given) | > 100 µM | > 100 µM | > 100 µM | > 100 µM | > 100 µM | > 100 µM | > 100 µM | > 100 µM | > 100 µM | > 100000 nM | > 100 µM | 18.9 nM | 57.4 nM | > 100000 nM | > 100 µM | > 100000 nM | > 100000 nM | 51.3 nM |
| O=C(Nc1ccc(-n2cc(-c3ccncc3)c(-c3ccc(Cl)c(O)c3)n2)cc1)c1cc(Cl)cc(Cl)c1 | 4.23 µM | > 100 µM | > 100 µM | > 100 µM | 7.94 µM | > 100 µM | > 100 µM | > 100 µM | > 100 µM | 1530 nM | > 28 µM | 2690 nM | 1110 nM | 2310 nM | > 36.2 µM | 2790 nM | 3930 nM | 3940 nM |
| Cc1ccc(NC2=C(Cl)C(=O)c3nc(C)ccc3C2=O)cc1 | 3.23 µM | 4.39 µM | 2.68 µM | > 100 µM | 4.53 µM | 3.01 µM | 3.72 µM | 2.75 µM | 2.88 µM | 1750 nM | 1.81 µM | 1320 nM | 702 nM | 1880 nM | 1.32 µM | 1810 nM | 1310 nM | 1530 nM |
| O=C(Oc1ccc([N+](=O)[O-])cc1)N1CCC(C(O)(c2ccc3c(c2)OCO3)c2ccc3c(c2)OCO3)CC1 | > 100 µM | > 100 µM | > 100 µM | > 100 µM | > 100 µM | > 100 µM | > 100 µM | > 100 µM | > 100 µM | > 100000 nM | > 100 µM | > 100000 nM | > 100000 nM | > 100000 nM | > 100 µM | > 100000 nM | > 100000 nM | > 100000 nM |
| C=CC(=O)Nc1cc2c(Nc3ccc(OCc4ccccn4)c(Cl)c3)ncnc2cc1OCCN1CCOCC1 | > 83.3 µM | > 100 µM | 14.5 µM | > 100 µM | 22.6 µM | > 100 µM | > 74.3 µM | > 100 µM | > 100 µM | 1700 nM | 6.4 µM | 2990 nM | 2790 nM | 366 nM | 3.65 µM | 2090 nM | 4650 nM | 646 nM |
| N#Cc1ccc(-n2cnc(NC(=O)[C@H]3CCN(C#N)C3)c2)cc1 | 9.11 µM | > 100 µM | 9.27 µM | > 100 µM | 4.43 µM | 98.7 µM | 3.74 µM | > 56.7 µM | 4 µM | 2420 nM | 3.15 µM | 1100 nM | 2670 nM | 567 nM | 3.51 µM | 519 nM | 3290 nM | 546 nM |
